Experimental findings from ChEMBL document CHEMBL1201862, “PubChem BioAssay data set” (2004) are described below.

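These data come from cells grown in 96-well plates and exposed to compound for 48 hours at five concentrations. GI50: concentration for 50% inhibition of growth.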 Calls of active or inactive are those of the source. No stated cut-off is given here; in the data, active = GI50 up to about 1.1 µM and inactive = higher. Bounds are passed on as bounds.

Test systems include A498; A549; CAKI-1; DU-145; HCC 2998; HL-60; HOP-62; M14; MCF7; MDA-MB-435; NCI-H23; RPMI-8226; RXF 393; SK-MEL-28; SK-MEL-5; SNB-19; SW-620; UACC-62; SF-268; SF-539.
Common to all, as to test: NCI-60 cell line screen, 48 h

Take `COC(=O)C1(C(=O)OC)N=C(C)OC1c1ccccn1` (stereo unspecified): the GI50 in the assay on A498, with A549, in the assay on CAKI-1, in the assay with DU-145, in the assay on HCC 2998 and in the assay on HL-60 was > 100 µM (inactive) each time. For the same compound, the GI50 in the assay on HOP-62, with M14, in the assay with MCF7, with MDA-MB-435, in the assay on NCI-H23 and with RPMI-8226 was > 100 µM (inactive) each time. For the same compound, the GI50 in the assay with RXF 393, with SK-MEL-28, in the assay with SK-MEL-5, with SNB-19, in the assay on SW-620 and in the assay with UACC-62 was > 100 µM (inactive) throughout.
Take `O=C1/C(=C/c2ccc(Br)s2)NC(=S)N1CN1CCCCC1`: the GI50 was 22.9 µM (inactive) with A498; 32.4 µM (inactive) with CAKI-1; 38.1 µM (inactive) in the assay with DU-145; 31 µM (inactive) with HCC 2998; 15.4 µM (inactive) with HL-60; 75 µM (inactive) in the assay on HOP-62. Besides, the GI50 in the assay with MCF7 is 20.6 µM (inactive); in the assay with MDA-MB-435, 30 µM (inactive); in the assay on NCI-H23, 32.4 µM (inactive); with RPMI-8226, 17.6 µM (inactive); with RXF 393, 21.1 µM (inactive); in the assay on SF-268, 39.4 µM (inactive). The GI50 with SK-MEL-28 is 41.1 µM (inactive); in the assay on SK-MEL-5, 0.317 µM (active); in the assay on SNB-19, 46.9 µM (inactive); in the assay on SW-620, 33 µM (inactive); in the assay with UACC-62, 26.6 µM (inactive).
For the compound `CC#Cc1cc2c(cc1O)CC[C@@H]1[C@@H]2CC[C@]2(C)[C@@H](O)CC[C@@H]12`, the GI50 with A498 is 5.28 µM (inactive); in the assay with A549 it was 2.01 µM (inactive); in the assay with CAKI-1, 0.766 µM (active); in the assay with DU-145 it was 3.43 µM (inactive); in the assay on HCC 2998, 5.89 µM (inactive); in the assay with HL-60 it was 0.311 µM (active). Besides, the GI50 is 1.29 µM (inactive) with HOP-62; 0.521 µM (active) with M14; 0.685 µM (active) in the assay with MCF7; 0.134 µM (active) in the assay with MDA-MB-435; 1.54 µM (inactive) in the assay with NCI-H23; 1.61 µM (inactive) in the assay on RPMI-8226. The GI50 with RXF 393 was 2.45 µM (inactive); in the assay on SF-268 it was 3.59 µM (inactive); with SK-MEL-28, 7.36 µM (inactive); in the assay on SK-MEL-5, 0.484 µM (active); in the assay on SNB-19 it was 2.4 µM (inactive); in the assay on SW-620 it was 0.655 µM (active).
Regarding `CC(C)[Si](OC1=C(C(=O)N(C)c2ccccc2Cl)CCCC1)(C(C)C)C(C)C`, the GI50 in the assay with A498 is 16.9 µM (inactive); with A549 it was 1.57 µM (inactive); in the assay on CAKI-1, 14.3 µM (inactive); in the assay with DU-145, 10.6 µM (inactive); in the assay with HCC 2998, 13.6 µM (inactive); in the assay with HOP-62, 18 µM (inactive). Besides, the GI50 with M14 was 16.1 µM (inactive); in the assay on MCF7, 13.2 µM (inactive); in the assay with MDA-MB-435, 16.4 µM (inactive); with NCI-H23 it was 16.3 µM (inactive); in the assay with RPMI-8226, 10.3 µM (inactive); in the assay on RXF 393, 16.1 µM (inactive). Moreover, the GI50 in the assay on SF-268 is 13.9 µM (inactive); in the assay on SF-539, 18 µM (inactive); with SK-MEL-28, 19 µM (inactive); in the assay with SK-MEL-5 it was 13.8 µM (inactive); in the assay on SNB-19, 12.8 µM (inactive); with SW-620, 15.2 µM (inactive). Moreover, the GI50 in the assay with UACC-62 was 15.7 µM (inactive).
For the compound `NCC1OC(n2cnc3c(N)ncnc32)CC1O` (stereo unspecified), the GI50 in the assay with A498, in the assay with A549, in the assay with CAKI-1, with DU-145, in the assay on HL-60 and in the assay on HOP-62 was > 100 µM (inactive) throughout. In addition, the GI50 in the assay on M14, in the assay with MCF7, in the assay on MDA-MB-435, with NCI-H23, in the assay with RPMI-8226 and in the assay on RXF 393 was > 100 µM (inactive) throughout. Further, the GI50 in the assay on SF-268, in the assay with SF-539, in the assay with SK-MEL-28, in the assay on SK-MEL-5, in the assay on SNB-19 and in the assay on SW-620 was > 100 µM (inactive) each time. In addition, the GI50 in the assay on UACC-62 is > 100 µM (inactive).
For the compound `Nc1ccccc1.O=P(O)(O)c1ccccc1`, the GI50 with A498, in the assay on A549, in the assay on CAKI-1, in the assay on DU-145, with HCC 2998 and in the assay with HL-60 was > 100 µM (inactive) throughout. Besides, the GI50 in the assay with HOP-62, in the assay on M14, with MCF7, in the assay with MDA-MB-435, with NCI-H23 and in the assay on RPMI-8226 was > 100 µM (inactive) each time. For the same compound, the GI50 in the assay on RXF 393, in the assay on SF-268, in the assay with SK-MEL-28, in the assay with SK-MEL-5, in the assay on SNB-19 and with SW-620 was > 100 µM (inactive) in each case. The GI50 with UACC-62 is > 100 µM (inactive).
`CCN(CC)CCC(=O)O[C@H]1CC[C@H](CC(C)[C@H]2CC(=O)C(C)C=C(C)[C@H](OC(=O)CCN(CC)CC)C(OC)C(=O)[C@@H](C)CC(C)/C=C/C=C/C=C(C)C(OC)CC3CC[C@H](C)[C@](O)(O3)C(=O)C(=O)N3CCCCC3C(=O)O2)CC1OC` (stereo partly specified): the GI50 in the assay with A498 is 0.0161 µM (active); in the assay with A549, 0.251 µM (active); with CAKI-1, 0.108 µM (active); in the assay with DU-145, 0.179 µM (active); in the assay with HCC 2998 it was 0.267 µM (active); in the assay with HOP-62, < 0.01 µM (active). For the same compound, the GI50 with M14 is 0.35 µM (active); in the assay with MCF7, < 0.026 µM (active); in the assay on MDA-MB-435, 0.264 µM (active); with NCI-H23 it was 0.161 µM (active); in the assay on RXF 393 it was 0.011 µM (active); with SF-268, 0.348 µM (active). For the same compound, the GI50 in the assay on SF-539 was 0.0185 µM (active); in the assay on SK-MEL-28, 0.0284 µM (active); in the assay on SK-MEL-5 it was 0.173 µM (active); with SNB-19, 0.0571 µM (active); with SW-620 it was 0.266 µM (active); in the assay with UACC-62 it was 0.0448 µM (active).
Regarding `CCn1nc2c3c(ncn3C(C)(C)O2)c1=O`, the GI50 in the assay with A498, in the assay with A549, in the assay on CAKI-1, in the assay with DU-145, with HCC 2998 and with HL-60 was > 100 µM (inactive) in each case. The GI50 in the assay on HOP-62, in the assay on M14, with MCF7, in the assay with MDA-MB-435, with NCI-H23 and in the assay with RPMI-8226 was > 100 µM (inactive) in each case. Besides, the GI50 in the assay on RXF 393, in the assay with SF-268, in the assay on SK-MEL-28, in the assay with SK-MEL-5, in the assay with SNB-19 and in the assay with SW-620 was > 100 µM (inactive) in each case. Moreover, the GI50 in the assay on UACC-62 was > 100 µM (inactive).
As for `COc1cc2c(cc1O)-c1c(cnn1-c1ccc([N+](=O)[O-])cc1)CCC2`, the GI50 in the assay with A498 was 23 µM (inactive); with A549, 12.7 µM (inactive); with CAKI-1 it was 10.8 µM (inactive); in the assay with DU-145, 14.8 µM (inactive); in the assay with HOP-62 it was 21.9 µM (inactive); in the assay with M14, 16.6 µM (inactive). For the same compound, the GI50 in the assay with MCF7 was 26.8 µM (inactive); with MDA-MB-435, 17.4 µM (inactive); with NCI-H23, 13.8 µM (inactive); with RPMI-8226 it was 4.76 µM (inactive); in the assay with RXF 393, 50.8 µM (inactive); with SF-268 it was 8.95 µM (inactive). Besides, the GI50 was 11.1 µM (inactive) in the assay on SF-539; 20.4 µM (inactive) in the assay on SK-MEL-28; 13.4 µM (inactive) in the assay on SK-MEL-5; 27.7 µM (inactive) in the assay on SNB-19; 23.3 µM (inactive) in the assay on SW-620; 1.79 µM (inactive) in the assay on UACC-62.
For the compound `CCC(CC)(CO)CNc1cc(Cl)nc(N)n1`, the GI50 in the assay on A498, in the assay on A549, with CAKI-1, with DU-145, in the assay on HL-60 and in the assay on HOP-62 was > 100 µM (inactive) in each case. Besides, the GI50 with MCF7 was > 100 µM (inactive); with MDA-MB-435, > 100 µM (inactive); in the assay with NCI-H23, > 100 µM (inactive); in the assay on RPMI-8226, 92.9 µM (inactive); in the assay on RXF 393, 67.1 µM (inactive); with SF-268, 55.6 µM (inactive). For the same compound, the GI50 in the assay with SF-539 is > 100 µM (inactive); with SK-MEL-28, > 100 µM (inactive); in the assay with SK-MEL-5 it was 60.7 µM (inactive); in the assay on SW-620 it was > 100 µM (inactive); in the assay with UACC-62 it was > 100 µM (inactive).
`Nc1nc(NCC2(CO)CCC2)cc(=O)[nH]1`: the GI50 with A498, with A549, in the assay on CAKI-1, in the assay with DU-145, with HCC 2998 and in the assay with HL-60 was > 100 µM (inactive) in each case. For the same compound, the GI50 with HOP-62, in the assay with M14, in the assay with MCF7, in the assay with MDA-MB-435, with NCI-H23 and with RPMI-8226 was > 100 µM (inactive) throughout. Moreover, the GI50 with RXF 393, with SF-268, in the assay on SK-MEL-28, with SK-MEL-5, in the assay with SNB-19 and in the assay on SW-620 was > 100 µM (inactive) in each case. Also, in the assay on UACC-62, the GI50 is > 100 µM (inactive).
